≈ marks a conversion by molar mass, not a printed value. Entries after “also recorded” stand apart in the source; their conditions may differ. Structures can show the parent of a compound that is named as a salt.
Columns and labels:
[1] = system: M. synoviae 25204; test: Antimycoplasmal MIC, metabolic-inhibition test, M. synoviae 25204; assay type: cell-based; conditions: Mycoplasmopsis synoviae, 168 h, dilutions 250-0.5 μg/ml, 37° C., seven days, read-out: MIC (in vitro antimycoplasmal activity)
[2] = system: M. fermentans MW KL 4; test: Antimycoplasmal MIC, metabolic-inhibition test, M. fermentans MW KL 4; assay type: cell-based; conditions: Mycoplasmopsis fermentans, MWKL4, 168 h, dilutions 250-0.5 μg/ml, 37° C., seven days, read-out: MIC (in vitro antimycoplasmal activity)
[3] = system: M. pneumoniae 427 a; test: Antimycoplasmal MIC, metabolic-inhibition test, M. pneumoniae 427 a; assay type: cell-based; conditions: Mycoplasmoides pneumoniae, 168 h, dilutions 250-0.5 μg/ml, 37° C., seven days, read-out: MIC (in vitro antimycoplasmal activity)
[4] = system: M. suipneumoniae (Laber); test: Antimycoplasmal MIC, metabolic-inhibition test, M. suipneumoniae (Laber); assay type: cell-based; conditions: Mesomycoplasma hyopneumoniae, 168 h, dilutions 250-0.5 μg/ml, 37° C., seven days, read-out: MIC (in vitro antimycoplasmal activity)
[5] = system: M. pulmonis 'JB'; test: Antimycoplasmal MIC, metabolic-inhibition test, M. pulmonis 'JB'; assay type: cell-based; conditions: Mycoplasmopsis pulmonis, 168 h, dilutions 250-0.5 μg/ml, 37° C., seven days, read-out: MIC (in vitro antimycoplasmal activity)
[6] = system: M. dispar H225; test: Antimycoplasmal MIC, metabolic-inhibition test, M. dispar H225; assay type: cell-based; conditions: 168 h, dilutions 250-0.5 μg/ml, 37° C., seven days, read-out: MIC (in vitro antimycoplasmal activity)
[7] = system: M. bovis 25025; test: microbe, parasite or virus in culture; assay type: cell-based; conditions: 25025, 168 h, read-out: MIC (in vitro antimycoplasmal activity)
[8] = system: mycoplasmas from human and veterinary sources; test: Antimycoplasmal activity in vitro, overall; assay type: cell-based
Experimental: 1. The minimal inhibitory concentrations (MIC) of pseudomonic acid and methyl pseudomonate were determined in Microtitre plates, by a modification of the metabolic-inhibition test (Taylor-Robinson, 1967). The compounds were serially diluted in sterile de-ionised water to give a range of concentrations from 250-0.5 μg/ml. Mycoplasma broth containing 1% (w/v) of glucose and 0.005% (w/v) of phenon red, was added at a strength to compensate for its dilution by the aqueous drug solution. Approximately 10^4 colony forming units of mycoplasma were added to each concentration of drug. Drug-free infected, noninfected and pH control wells were included on each plate. Plates were sealed with cellotape and incubated at 37° C. for seven days. The MIC was the lowest concentration of compound that prevented a colour change in the mycoplasma broth, caused by the metabolism of glucose by the mycoplasmas.

[9] = system: M. gallisepticum S6; test: Antimycoplasmal MIC, metabolic-inhibition test, M. gallisepticum S6; assay type: cell-based; conditions: Mycoplasmoides gallisepticum, 168 h, dilutions 250-0.5 μg/ml, 37° C., seven days, read-out: MIC (in vitro antimycoplasmal activity)
[10] = system: Pasteurella multocida; test: Antibacterial activity, Pasteurella multocida; assay type: cell-based
[11] = system: Staphylococcus aureus; test: Antibacterial spectrum (MIC), Staphylococcus aureus; assay type: cell-based
[12] = Blood and urinary excretion levels, dog; assay type: in vivo; conditions: 100 mg/kg; for Cmax: blood, read-out: Peak Level (blood); for dose excreted: urine, read-out: Urinary Recovery
From the text: (§1) The results of administering pseudomonic acid to four different animal species are shown in Table 2 in terms of peak blood levels and urinary recovery.

[13] = system: Staphylococcus epidermidis; test: Antibacterial spectrum (MIC), Staphylococcus epidermidis; assay type: cell-based
[14] = Blood and urinary excretion levels, mouse; assay type: in vivo; conditions: 50 mg/kg; for Cmax: blood, read-out: Peak Level (blood); for dose excreted: urine, read-out: Urinary Recovery
From the text: as §1

[15] = system: M. synoviae ATCC 25204; test: M. synoviae-induced airsacculitis of chicken; assay type: in vivo, chicken (white leghorn chicks) infected with M. synoviae
Experimental: 3. M. synoviae-induced airsacculitis of chicken 0.5 ml volumes of a broth culture containing about 10^8 CFU of M. synoviae ATCC No. 25204 were injected into the left abdominal air sacs of groups of five, one week old, specific pathogen free (SPF) white leghorn chicks. […] Seven days after infection the chicks were autopsied and the air sacs were examined macroscopically for mycoplasmal lesions and microbiologically for the presence of M. synoviae.

[16] = Blood and urinary excretion levels, squirrel monkey; assay type: in vivo; conditions: 100 mg/kg; for Cmax: blood, read-out: Peak Level (blood); for dose excreted: urine, read-out: Urinary Recovery
From the text: as §1

[17] = system: M. pulmonis 'JB'; test: M. pulmonis-induced arthritis of mice; conditions: for Number of mice with arthritis/total number mice: 200 mg/kg × 5 s.c.; for prevented the development of arthritis: 200 mg/kg s.c. daily, five consecutive days
[18] = system: Gram-negative bacilli; test: Antibacterial spectrum (MIC), Gram-negative bacilli
[19] = system: Streptococcus pyogenes; test: Antibacterial spectrum (MIC), Streptococcus pyogenes; assay type: cell-based
[20] = Toxicity (LD50), mouse; assay type: in vivo; conditions: for LD50: in vivo
[21] = system: streptococci; test: Antibacterial spectrum, streptococci; assay type: cell-based; conditions: most streptococci
[22] = system: Streptococcus pneumoniae; test: Antibacterial spectrum (MIC), Streptococcus pneumoniae; assay type: cell-based
[23] = Toxicity (LD50), rat; assay type: in vivo; conditions: for LD50: in vivo
[24] = system: staphylococci; test: Antibacterial spectrum, staphylococci; assay type: cell-based
[25] = system: Streptococcus faecalis; test: Antibacterial spectrum (MIC), Streptococcus faecalis; assay type: cell-based; conditions: Enterococcus faecalis
[26] = system: Mycoplasma species; test: Antibacterial spectrum (MIC), Mycoplasma species
[27] = system: Bordetella bronchiseptica; test: Antibacterial activity, Bordetella bronchiseptica; assay type: cell-based
[28] = Blood and urinary excretion levels, rat; assay type: in vivo; conditions: 100 mg/kg; for Cmax: blood, read-out: Peak Level (blood); for dose excreted: urine, read-out: Urinary Recovery
From the text: as §1

[29] = system: Haemophilus influenzae; test: Antibacterial spectrum (MIC), Haemophilus influenzae; assay type: cell-based
[30] = system: Neisseria meningitidis; test: Antibacterial spectrum (MIC), Neisseria meningitidis; assay type: cell-based
[31] = system: Neisseria gonorrhoeae; test: Antibacterial spectrum (MIC), Neisseria gonorrhoeae; assay type: cell-based

Which MIC [1] does the source give for `C/C(=C\C(=O)OCCCCCCCCC(=O)O)C[C@@H]1OC[C@H](C[C@@H]2O[C@H]2[C@@H](C)[C@H](C)O)[C@@H](O)[C@H]1O` [Pseudomonic acid (Na salt)] here?
Its MIC is < 0.5 µg/mL.

What about the MIC [2] of the same molecule?
Its MIC is < 0.5 µg/mL.

And the MIC [3]?
Its MIC is < 0.5 µg/mL.

And the MIC [4]?
Its MIC is 1.9 to 3.9 µg/mL.

And the MIC [5]?
Its MIC is < 0.5 µg/mL.

And the MIC [6]?
Its MIC is < 0.5 µg/mL.

What about the MIC [7] of the same molecule?
The MIC was < 0.5 µg/mL.

What about the “antimycoplasmal activity in vitro (in words)” value [8] of the same molecule?
Its value is “good antimycoplasmal activity in vitro”.

And the MIC [9]?
The MIC was 7.8 µg/mL.

Which “antibacterial activity (in words)” value [10] does the source give for `C/C(=C\C(=O)OCCCCCCCCC(=O)O)C[C@@H]1OC[C@H](C[C@@H]2O[C@H]2[C@@H](C)[C@H](C)O)[C@@H](O)[C@H]1O` [Pseudomonic acid] here?
The value was “has activity”.

What about the MIC [11] of the same molecule?
Its MIC is 0.25 µg/mL (≈ 0.499 µM).

And the Cmax ([12]; im)?
Its Cmax is 25300 ng/mL.

What about the Cmax ([12]; po) of the same molecule?
The Cmax was 3600 ng/mL.

What about the dose excreted ([12]; im) of the same molecule?
Its dose excreted is 1%.

What about the dose excreted ([12]; po) of the same molecule?
Its dose excreted is < 1%.

And the MIC [13]?
The MIC was 0.25 µg/mL (≈ 0.499 µM).

What about the Cmax ([14]; po) of the same molecule?
The Cmax was < 1000 ng/mL.

And the Cmax ([14]; sc)?
Its Cmax is 7200 ng/mL.

And the dose excreted ([14]; po)?
Its dose excreted is < 1%.

What about the dose excreted ([14]; sc) of the same molecule?
The dose excreted was < 1%.

And the “prevented the development of airsac lesions” value ([15]; 200 mg/kg i.m. twice per day)?
Its value is “four out of five birds”.

And the “re-isolation of M. synoviae from airsacs (in words)” value ([15]; 200 mg/kg i.m. twice per day)?
Its value is “not re-isolated from the airsacs of any”.

And the Number birds protected/total ([15]; 200 mg/kg × 7 i.m., autopsy seven days after infection)?
The Number birds protected/total was 4/5.

And the “Number of birds from which M. synoviae was re-isolated” value ([15]; 200 mg/kg × 7 i.m., seven days after infection)?
Its value is 0.

What about the “activity in vivo in experimentally induced mycoplasmal infection (in words)” value ([15]; chicken) of the same molecule?
Its value is “active in vivo”.

And the Cmax ([16]; im)?
Its Cmax is 40000 ng/mL.

And the Cmax ([16]; po)?
The Cmax was 26800 ng/mL.

And the dose excreted ([16]; im)?
The dose excreted was 2%.

And the dose excreted ([16]; po)?
Its dose excreted is 1.5%.

What about the “Number of mice with arthritis/total number mice” value ([17]; Expt 1, day 3 after infection) of the same molecule?
Its value is 0/6.

And the “Number of mice with arthritis/total number mice” value ([17]; Expt 1, day 7 after infection)?
Its value is 1/5.

What about the “Number of mice with arthritis/total number mice” value ([17]; Expt 1, day 10 after infection) of the same molecule?
Its value is 1/5.

What about the “Number of mice with arthritis/total number mice” value ([17]; Expt 1, day 14 after infection) of the same molecule?
The value was 1/5.

And the “Number of mice with arthritis/total number mice” value ([17]; Expt 2, day 3 after infection)?
Its value is 0/8.

And the “Number of mice with arthritis/total number mice” value ([17]; Expt 2, day 8 after infection)?
Its value is 2/8.

What about the “Number of mice with arthritis/total number mice” value ([17]; Expt 2, day 10 after infection) of the same molecule?
The value was 2/8.

What about the “Number of mice with arthritis/total number mice” value ([17]; Expt 2, day 14 after infection) of the same molecule?
The value was 4/8.

And the “prevented the development of arthritis” value ([17]; first experiment)?
Its value is “four out of five mice”.

And the “activity in vivo in experimentally induced mycoplasmal infection (in words)” value ([17]; mice)?
The value was “active in vivo”.

And the “prevented the development of arthritis” value ([17]; second experiment)?
Its value is “four out of eight mice”.

And the “antibacterial activity (in words)” value [18]?
Its value is “relatively inactive”.

What about the MIC [19] of the same molecule?
Its MIC is 0.25 µg/mL (≈ 0.499 µM).

What about the LD50 ([20]; iv) of the same molecule?
The LD50 was 1640 to 2050 mg/kg.

What about the LD50 ([20]; p.c. (so in the source)) of the same molecule?
The LD50 was 5000 mg/kg.

And the LD50 ([20]; sc)?
Its LD50 is 4000 to 5000 mg/kg.

What about the “toxicity (in words)” value ([20]; three routes) of the same molecule?
The value was “low degree of toxicity”.

What about the “antibacterial activity (in words)” value [21] of the same molecule?
Its value is “good activity”.

What about the MIC [22] of the same molecule?
The MIC was 0.12 µg/mL (≈ 0.24 µM).

What about the LD50 ([23]; iv) of the same molecule?
Its LD50 is 1310 to 2560 mg/kg.

And the LD50 ([23]; po)?
Its LD50 is 5000 mg/kg.

What about the LD50 ([23]; sc) of the same molecule?
The LD50 was 5000 mg/kg.

What about the “toxicity (in words)” value ([23]; three routes) of the same molecule?
Its value is “low degree of toxicity”.

What about the “antibacterial activity (in words)” value [24] of the same molecule?
Its value is “good activity”.

What about the MIC [25] of the same molecule?
Its MIC is 50 µg/mL (≈ 99.9 µM).

And the “antimycoplasmal activity / sensitivity (in words)” value ([26]; Mycoplasma sp, b37: most mycoplasma species)?
The value was “very sensitive; also recorded: particularly high activity”.

What about the MIC ([26]; Mycoplasma species) of the same molecule?
Its MIC is <0.01 to 25 µg/mL.

What about the “antibacterial activity (in words)” value [27] of the same molecule?
Its value is “has activity”.

What about the Cmax ([28]; im) of the same molecule?
Its Cmax is 15800 ng/mL.

What about the Cmax ([28]; iv) of the same molecule?
The Cmax was 66700 ng/mL.

What about the dose excreted ([28]; im) of the same molecule?
The dose excreted was < 1%.

What about the dose excreted ([28]; iv) of the same molecule?
Its dose excreted is < 1%.

And the MIC [29]?
Its MIC is 0.12 µg/mL (≈ 0.24 µM).

And the “antibacterial activity / susceptibility (in words)” value ([29]; including strains resistant to other antibiotics)?
The value was “very susceptible; also recorded: particularly high activity”.

What about the MIC [30] of the same molecule?
The MIC was 0.02 µg/mL (≈ 0.0399 µM).

What about the MIC ([31]; Neisseria gonorrhoeae) of the same molecule?
Its MIC is 0.01 µg/mL (≈ 0.02 µM).

And the “antibacterial activity / susceptibility (in words)” value ([31]; Neisseria gonorrhoeae (gonococci), including strains resistant to other antibiotics)?
Its value is “very susceptible; also recorded: particularly high activity”.

What does the source list for `COC(=O)CCCCCCCCOC(=O)/C=C(\C)C[C@@H]1OC[C@H](C[C@@H]2O[C@H]2[C@@H](C)[C@H](C)O)[C@@H](O)[C@H]1O` [methyl pseudomonate]?
MIC [1]: < 0.5 µg/mL; MIC [2]: < 0.5 µg/mL; MIC [3]: 7.8 µg/mL (≈ 15.2 µM); MIC [4]: 7.8 µg/mL (≈ 15.2 µM); MIC [5]: < 0.5 µg/mL; MIC [6]: < 0.5 µg/mL; MIC [7]: < 0.5 µg/mL; antimycoplasmal activity in vitro (in words) [8]: good antimycoplasmal activity in vitro; MIC [9]: 15.6 µg/mL (≈ 30.3 µM)

— US4206224A, “Treatment of infections” (Beecham Group Limited, priority 1976, dated 1980)
